Results as given in patent US20030087906A1, “NITROGEN SUBSTITUTED BIARYL PURINE DERIVATIVES AS POTENT ANTIPROLIFERATIVE AGENTS” (priority 2001, published 2003).

Assays:
Test in all cases: NCI 60-cell line growth inhibition assay
Assay type in all cases: cell-based
[1] = system: RPMI-8226; conditions: Homo sapiens; RPMI-8226 (Leukemia)
[2] = system: HCT-15; conditions: Homo sapiens; HCT-15 (Colon)
[3] = system: HOP-92; conditions: Homo sapiens; HOP-92 (Non-Small Cell Lung)
[4] = system: KM12; conditions: Homo sapiens; KM12 (Colon)
[5] = system: A498; conditions: Homo sapiens; A498 (Renal)
[6] = system: M14; conditions: Homo sapiens; M14 (Melanoma)
[7] = system: PC-3; conditions: Homo sapiens; PC-3 (Prostate)
[8] = system: EKVX; conditions: Homo sapiens; EKVX (Non-Small Cell Lung)
[9] = system: COLO 205; conditions: Homo sapiens; COLO 205 (Colon)
[10] = system: K-562; conditions: Homo sapiens, K562; K-562 (Leukemia)
[11] = system: SK-OV-3; conditions: Homo sapiens; SK-OV-3 (Ovarian)
[12] = system: NCI-H226; conditions: Homo sapiens; NCI-H226 (Non-Small Cell Lung)
[13] = system: NCI-H460; conditions: Homo sapiens; NCI-H460 (Non-Small Cell Lung)
[14] = system: SK-MEL-5; conditions: Homo sapiens; SK-MEL-5 (Melanoma)
[15] = system: OVCAR-4; conditions: Homo sapiens; OVCAR-4 (Ovarian)
[16] = system: SN12C; conditions: Homo sapiens; SN12C (Renal)
[17] = system: NCI-H522; conditions: Homo sapiens; NCI-H522 (Non-Small Cell Lung)
[18] = system: SF-295; conditions: Homo sapiens; SF-295 (CNS)
[19] = system: CCRF-CEM; conditions: Homo sapiens; CCRF-CEM (Leukemia)
[20] = system: LOX IMVI; conditions: Homo sapiens; LOX IMVI (Melanoma)
[21] = system: IGROV1; conditions: Homo sapiens, IGROV-1; IGROV1 (Ovarian)
[22] = system: SNB-19; conditions: Homo sapiens; SNB-19 (CNS)
[23] = system: MOLT-4; conditions: Homo sapiens; MOLT-4 (Leukemia)
[24] = system: SF-268; conditions: Homo sapiens; SF-268 (CNS)
[25] = system: T-47D; conditions: Homo sapiens, T47D; T-47D (Breast)
[26] = system: HCC-2998; conditions: Homo sapiens; HCC-2998 (Colon)
[27] = system: MALME-3M; conditions: Homo sapiens; MALME-3M (Melanoma)
[28] = system: HCT-116; conditions: Homo sapiens; HCT-116 (Colon)
[29] = system: SK-MEL-2; conditions: Homo sapiens; SK-MEL-2 (Melanoma)
[30] = system: HOP-62; conditions: Homo sapiens; HOP-62 (Non-Small Cell Lung)
[31] = system: CAKI-1; conditions: Homo sapiens; CAKI-1 (Renal)
[32] = system: NCI/ADR-RES; conditions: Homo sapiens; NCI/ADR-RES (Breast)
[33] = system: MDA-MB-435; conditions: Homo sapiens; MDA-MB-435 (Breast)
[34] = system: SW-620; conditions: Homo sapiens; SW-620 (Colon)
[35] = system: OVCAR-8; conditions: Homo sapiens; OVCAR-8 (Ovarian)
[36] = system: A549/ATCC; conditions: Homo sapiens; A549/ATCC (Non-Small Cell Lung)
[37] = system: SR; conditions: Homo sapiens; SR (Leukemia)
[38] = system: NCI-H23; conditions: Homo sapiens; NCI-H23 (Non-Small Cell Lung)
[39] = system: NCI-H322M; conditions: Homo sapiens; NCI-H322M (Non-Small Cell Lung)
[40] = system: HL-60(TB); conditions: Homo sapiens; HL-60(TB) (Leukemia)

SMILES | GI50 [1] [nM] | GI50 [2] [nM] | GI50 [4] [nM] | GI50 [5] [nM] | GI50 [6] [nM] | GI50 [7] [nM] | GI50 [8] [nM] | GI50 [9] [nM] | GI50 [10] [nM] | GI50 [12] [nM] | GI50 [15] [nM] | GI50 [16] [nM] | GI50 [17] [nM] | GI50 [18] [nM] | GI50 [21] [nM] | GI50 [22] [nM] | GI50 [23] [nM] | GI50 [25] [nM] | GI50 [26] [nM] | GI50 [28] [nM] | other results
Cn1cnc2c(NCc3ccccc3)nc(NCCO)nc21 [Olomoucine, reference compound] | 50000 | 40000 | 40000 | 32000 | 100000 | 100000 | 100000 | 32000 | 100000 | 50000 | 100000 | 100000 | 40000 | 79000 | 40000 | 63000 | 63000 | 63000 | 63000 | 40000 | GI50 [3]: 50000 nM; GI50 [11]: 100000 nM; GI50 [13]: 63000 nM; GI50 [14]: 40000 nM; GI50 [19]: 40000 nM; GI50 [20]: 32000 nM; GI50 [24]: 50000 nM; GI50 [27]: 100000 nM; GI50 [29]: 100000 nM; GI50 [30]: 32000 nM; GI50 [31]: 32000 nM; GI50 [32]: 100000 nM; GI50 [33]: 63000 nM; GI50 [34]: 40000 nM; GI50 [35]: 63000 nM; GI50 [36]: 50000 nM; GI50 [37]: 25000 nM; GI50 [38]: 79000 nM; GI50 [39]: 63000 nM; GI50 [40]: 40000 nM
CC(C)n1cnc2c(NCc3ccc(-c4ccsc4)cc3)nc(N[C@H]3CC[C@H](N)CC3)nc21 [Compound 12] | < 5 | 170 | < 5 | 16 | < 5 | < 5 | 23 | < 5 | < 5 | 21 | < 5 | < 5 | < 5 | 18 | 13 | 16 | < 5 | 8.8 | < 5 | 8.9 | GI50 [3]: 11 nM; GI50 [19]: < 5 nM; GI50 [20]: < 5 nM; GI50 [24]: < 5 nM; GI50 [29]: 9.6 nM; GI50 [30]: < 5 nM; GI50 [32]: 1260 nM; GI50 [33]: < 5 nM; GI50 [34]: < 5 nM; GI50 [35]: 7.6 nM; GI50 [36]: < 5 nM; GI50 [37]: < 5 nM; GI50 [38]: < 5 nM; GI50 [39]: < 5 nM; GI50 [40]: < 5 nM
CC(=O)N[C@H]1CC[C@H](Nc2nc(NCc3ccc(-c4ccccn4)cc3)c3ncn(C(C)C)c3n2)CC1 [Compound 79] | < 10 | < 10 | < 10 | < 10 | < 10 | < 10 | < 10 | < 10 | < 10 | < 10 | < 10 | < 10 | < 10 | < 10 | < 10 | < 10 | < 10 | < 10 | < 10 | < 10 | GI50 [3]: < 10 nM; GI50 [11]: < 10 nM; GI50 [13]: < 10 nM; GI50 [14]: < 10 nM; GI50 [19]: < 10 nM; GI50 [20]: < 10 nM; GI50 [24]: < 10 nM; GI50 [27]: < 10 nM; GI50 [29]: < 10 nM; GI50 [30]: < 10 nM; GI50 [31]: < 10 nM; GI50 [32]: 860 nM; GI50 [33]: < 10 nM; GI50 [34]: < 10 nM; GI50 [35]: < 10 nM; GI50 [36]: < 10 nM; GI50 [37]: < 10 nM; GI50 [38]: < 10 nM; GI50 [39]: < 10 nM; GI50 [40]: < 10 nM
CC(C)n1cnc2c(NCc3ccc(-c4ccccn4)cc3)nc(N[C@H]3CC[C@H](N)CC3)nc21 [Compound 78] | < 10 | 1480 | < 10 | 30 | < 10 | < 10 | 50 | < 10 | 20 | 20 | 20 | < 10 | < 10 | 210 | < 10 | < 10 | < 10 | 30 | < 10 | 30 | GI50 [11]: 60 nM; GI50 [13]: 50 nM; GI50 [14]: 100 nM; GI50 [27]: 10 nM; GI50 [29]: 20 nM; GI50 [30]: 20 nM; GI50 [31]: 790 nM; GI50 [32]: 14400 nM; GI50 [34]: < 10 nM; GI50 [35]: 20 nM; GI50 [36]: < 10 nM; GI50 [38]: 10 nM; GI50 [39]: < 10 nM; GI50 [40]: < 10 nM
